Measured values as given in article PMC2765688, “Functional Characterization of N-Terminally GFP-Tagged GLP-1 Receptor” (Journal of Biomedicine and Biotechnology, 2009).

Key:
[1] = biological target: T1, human GLP-1 receptor (Homo sapiens, UniProt P43220); test: cAMP production, CHO cells expressing GLP-1 receptor; format: cell-based; details: 10 μM forskolin, 15 min, 37°C, P < .001
T1 construct: expressed in transfected cells; host or cells: CHO cells, transient transfection, pcDNA3
Description: (§1) Cells were plated in 6-well plates at 50 × 10^4 cells/well and incubated 24 hours in growth medium supplemented with 10% fetal bovine serum.
(§2) After stimulation, stimulating buffer was removed and replaced with 150 μL of TE buffer (50 mM Tris, 5 mM EDTA, pH = 7.4). Cells were lysed by scraping, followed by boiling at 100°C for 5 minutes and centrifuged at 16000× g for 10 minutes. The supernatant was collected and the total content of cAMP was measured by a specific radioimmunoassay (Amersham).
(§3) Statistical analysis (one-way ANOVA) was carried out by Prism 4 computer program (GraphPad Software, USA), which was used also for graphical presentation of the results. In ANOVA analysis Tukey-Kramer multiple comparison test was used to reveal significant differences between groups of interest; P > .05 was not considered significant.

[2] = biological target: T2, GFP-GLP-1 receptor (Homo sapiens, UniProt P43220); test: cAMP production, CHO cells expressing GFP-GLP-1 receptor; format: cell-based; details: 10 μM forskolin, 15 min, 37°C
T2 construct: linker: translated MCS of pEGFP-C3 plus translated 5'-untranslated region of clone hGLPR-6(20), between EGFP and the receptor (N); expressed in transfected cells; host or cells: CHO cells, transient transfection, pEGFP-C3
Description: as §1, §2, §3

C=C[C@@]1(C)CC(=O)[C@]2(O)[C@@]3(C)[C@@H](O)CCC(C)(C)[C@@H]3[C@H](O)[C@H](OC(C)=O)[C@@]2(C)O1 [forskolin]
cAMP production in response to forskolin (in words) [1]: significantly increased
cAMP production in response to forskolin (in words) ([2]; CHO cells expressing GFP-GLP-1 receptor, P < .001): significantly increased
Sensitivity to forskolin of GFP-GLP-1 receptor cells in comparison to GLP-1 receptor cells (in words) ([2]; Tukey-Kramer test): not more sensitive
